# In the RepoRT retention time repository:
# Test: Waters XBridge C18, 0.2 mL/min; A: water + 0.1% formic acid; B: methanol + 0.1% formic acid; gradient (min/%B) 0/10 4/50 17/95 25/95
# Details: stereoisomer not certain
row,Compound,LC retention time
1,O=C(O)c1ccc(-c2ccccc2-c2nn[nH]n2)cc1,7.9 min
2,COc1cc(Cc2cnc(N)nc2N)cc(OC)c1OC,4.7 min
3,COCC(=O)N(c1c(C)cccc1C)C(C)C(=O)OC (stereo not drawn),10 min
4,O=P(c1ccccc1)(c1ccccc1)c1ccccc1,11 min
5,CC(C)NCC(O)COc1ccc(COCCOC(C)C)cc1 (stereo not drawn),6.7 min
6,Cc1cccc(Nc2ccccc2C(=O)O)c1C,16 min
7,CC(C)NCC(O)COc1cccc2ccccc12 (stereo not drawn),7.2 min
8,Cc1cccc2sc3nncn3c12,7.3 min
9,COc1ccc(C(CN(C)C)C2(O)CCCCC2)cc1 (stereo not drawn),6.9 min
10,CC(C)OC(=O)C(C(=O)OC(C)C)=C1SCCS1,13 min
11,c1ccc2n[nH]nc2c1,5.8 min
12,CC(C)N1C(=O)c2ccccc2NS1(=O)=O,8.9 min
13,CC(C)OP(=O)(OC(C)C)SCc1ccccc1,14 min
14,COc1cccc(C2(O)CCCCC2CN(C)C)c1 (stereo not drawn),5.7 min
15,CCN(CC)CC(=O)Nc1c(C)cccc1C,5.2 min
16,COc1ccc(CN2CCNCC2)c(OC)c1OC,3.5 min
17,COC(=O)Nc1nc2ccccc2[nH]1,4.7 min
18,CN(C(=O)COc1nc2ccccc2s1)c1ccccc1,13 min
19,COC=C(C(=O)OC)c1ccccc1Oc1cc(Oc2ccccc2C#N)ncn1,11 min

# Now from value to compound:
row,LC retention time,Compound
1,8.6 min,CC(C)(C(=O)O)c1ccc(C(O)CCCN2CCC(C(O)(c3ccccc3)c3ccccc3)CC2)cc1 (stereo not drawn)
2,9.3 min,NC(=O)N1c2ccccc2C=Cc2ccccc21
3,4.7 min,CC(C)NCC(O)COc1ccc(CC(=O)O)cc1 (stereo not drawn)
4,5.7 min,Cc1cc(NS(=O)(=O)c2ccc(N)cc2)no1
5,5.6 min,CNC(=C[N+](=O)[O-])NCCSCc1ccc(CN(C)C)o1
6,12 min,COc1ccc2cc(C(C)C(=O)O)ccc2c1 (stereo not drawn)
7,7.2 min,Cc1cccc2n[nH]nc12
8,4.2 min,Nc1ccc(S(=O)(=O)Nc2nccs2)cc1
9,1.2 min,CN(C)C(=N)N=C(N)N
10,9.9 min,CCC(C)OC(=O)N1CCCCC1CCO (stereo not drawn)
11,11 min,CCCCC1=NC2(CCCC2)C(=O)N1Cc1ccc(-c2ccccc2-c2nn[nH]n2)cc1
12,1.2 min,CNC(=C[N+](=O)[O-])NCCS(=O)Cc1ccc(CN(C)C)o1 (stereo not drawn)
13,4.6 min,CCN1CCCC1CNC(=O)c1cc(S(=O)(=O)CC)c(N)cc1OC (stereo not drawn)
14,5.9 min,Cc1cc(=O)n(-c2ccccc2)n1C
15,12 min,CCCCC(=O)N(Cc1ccc(-c2ccccc2-c2nn[nH]n2)cc1)C(C(=O)O)C(C)C (stereo not drawn)
16,5.2 min,Cc1cc(C)nc(NS(=O)(=O)c2ccc(N)cc2)n1
17,10 min,CCN(CC)C(=O)c1cccc(C)c1
18,4.7 min,CCCC1CC(C(=O)NC(C(C)O)C2OC(SC)C(O)C(O)C2O)N(C)C1 (stereo not drawn)
19,7.4 min,CN(C)CCOC(c1ccccc1)c1ccccc1
20,10 min,CCC1OC(=O)C(C)C(OC2CC(C)(OC)C(O)C(C)O2)C(C)C(OC2OC(C)CC(N(C)C)C2O)C(C)(O)CC(C)C(=NOCOCCOC)C(C)C(O)C1(C)O (stereo not drawn)
21,3.5 min,CC(C)NCC(O)COc1ccc(CC(N)=O)cc1 (stereo not drawn)
22,4.4 min,Nc1ccc(S(=O)(=O)Nc2ccccn2)cc1
23,3.6 min,CN=C(NC#N)NCCSCc1nc[nH]c1C
24,8 min,NC(=O)N1c2ccccc2CC(=O)c2ccccc21
